pIC50: −log10 of the molar value.
Key:
[1] = test system: BRCA1 mRNA expression in MDA-MB-231 cells; test: qRT-PCR assay: BRCA1 mRNA expression in MDA-MB-231; assay type: cell-based, human; conditions: Homo sapiens, MDA-MB-231, Inhibition of BRCA1 mRNA expression in MDA-MB-231 cells; median; read-out: RTqPCR-MDA-MB-231, IC50, BRCA1 (median)
Procedure: 3. qRT-PCR Assay: BRCA, ATR, MCL1 in MDA-MB-231, CAL-120
Tissue cultured human MDA-MB-231 human breast cancer cells were plated in 500 microL per well at 200,000 cells/well in a 24 well microtiter plate. After 24 h, the cells were exposed continuously for 24 h to test substances (substances were added with Tecan HP 0300 Dispenser). RNA was prepared using Qiagen RNeasy MiniKit (#74106), RNA was quantified using a NanoDrop Equipment, and 600 nano gamms of RNA was coverted to cDNA using a SuperScript VILO kit (Thermofisher #11755050) followed by qPCR amplification. BRCA1 and ATR gene expression was measured by RT-qPCR and normalised to GAPDH housekeeping gene expression. qPCR primer sets have been purchased from Thermo Fisher Scientific/Applied Biosystems: BRCA1, #Hs 01556193; ATR, #Hs 00992123; GAPDH, #Hs 03929097.

[2] = molecular target: T1, CYCLIN K (nuclear staining in CAL-120 cells) (Homo sapiens, UniProt O75909); test: CYCLIN K nuclear protein level: immunofluorescence high content analysis (CAL-120); assay type: cell-based; conditions: 24 h, 50% reduction of nuclear CCNK staining intensity, median, read-out: CYCLIN K degradation IF, DC50-[mol/l] (median)
T1 construct: endogenous in cells; host or cells: CAL-120 human breast cancer cells (DSMZ ACC 459)
Procedure: 8. CYCLIN K nuclear protein level: immunofluorescence High Content Analysis
CAL-120 human breast cancer cells (DSMZ ACC 459) are seeded in 1536-well microtiter plates (800 cells per well) containing 50 nanoL of compounds in Dose-Response. Control wells received DMSO or Example 4. Plates are then incubated for 24 h at 37° C. in an humidified incubator and fixed with 4% PFA for 10 min. Then immunofluorescence (IF) against CYCLIN K (ThermoFisher Scientific CONK Antibody #PA5-85020, rabbit, 1:200 dilution) is performed using standard IF protocols. Cells are then stained with Hoechst 33342 (Life Technologies, H-1399, 0.1 microg/ml) and imaged on an automated confocal microscopy system (e.g. Perkin Elmer Opera Phenix). Nuclear and cytoplasmic intensity as well as the nuclear/cytoplasmic intensity ratio is determined by automated image analysis using custom generated scripts (MetaXpress). Data is then transferred to Genedata Screener software, normalized to DMSO and control and DC50 values (degrading concentration to achieve 50% reduction of nuclear CCNK staining intensity relative to controls) are reported.

[3] = test system: CAL-120, human breast adenocarcinoma cells; test: Proliferation assay CAL-120 (crystal violet, 4 days); assay type: cell-based; conditions: Homo sapiens, CAL-120, 96 h, CAL-120 cells, median, read-out: Prolif-CAL-120, IC50-[mol/l] (median)
Procedure: Human tumour cells were originally obtained from the American Type Culture Collection (ATCC), or from the Deutsche Sammlung von Mikroorganismen und Zellkulturen (DSMZ, German Collection of Microorganisms and Cell Cultures). Cultivated tumour cells (CAL-120, human breast adenocarcinoma cells, DSMZ ACC-459; MDA-MB-231, human breast cancer cells, ATCC HTB-26) were plated at a density of 4,000 cells/well in a 96-well multititer plate in 200 microL of their respective growth medium supplemented 10% fetal calf serum. After 24 hours, the cells of one plate (zero-point plate) were stained with crystal violet (see below), while the medium of the other plates was supplemented with the test substances in various concentrations (0 micromol/L, as well as in the range of 0.01-10 micromol/L; the final concentration of the solvent dimethyl sulfoxide was adjusted to 0.1%) using a Tecan HP D300 Digital Dispenser. The cells were incubated for 4 days in the presence of test substances. Cell proliferation was determined by staining the cells with crystal violet: the cells were fixed by adding 20 microL/measuring point of an 11% glutaric aldehyde solution for 15 minutes at room temperature. After three washing cycles of the fixed cells with water, the plates were dried at room temperature. The cells were stained by adding 100 microL/measuring point of a 0.1% crystal violet solution (pH 3.0). After three washing cycles of the stained cells with water, the plates were dried at room temperature. The dye was dissolved by adding 100 microL/measuring point of a 10% acetic acid solution. The extinction was determined by photometry at a wavelength of 595 nm. The change of cell number, in percent, was calculated by normalization of the measured values to the extinction values of the zero-point plate (=0%) and the extinction of the untreated (0 μM) cells (=100%). The IC50 values (inhibitory concentration at 50% of maximal effect) were determined by means of a 4 parameter fit.

T1 sequence (O75909 whole entry): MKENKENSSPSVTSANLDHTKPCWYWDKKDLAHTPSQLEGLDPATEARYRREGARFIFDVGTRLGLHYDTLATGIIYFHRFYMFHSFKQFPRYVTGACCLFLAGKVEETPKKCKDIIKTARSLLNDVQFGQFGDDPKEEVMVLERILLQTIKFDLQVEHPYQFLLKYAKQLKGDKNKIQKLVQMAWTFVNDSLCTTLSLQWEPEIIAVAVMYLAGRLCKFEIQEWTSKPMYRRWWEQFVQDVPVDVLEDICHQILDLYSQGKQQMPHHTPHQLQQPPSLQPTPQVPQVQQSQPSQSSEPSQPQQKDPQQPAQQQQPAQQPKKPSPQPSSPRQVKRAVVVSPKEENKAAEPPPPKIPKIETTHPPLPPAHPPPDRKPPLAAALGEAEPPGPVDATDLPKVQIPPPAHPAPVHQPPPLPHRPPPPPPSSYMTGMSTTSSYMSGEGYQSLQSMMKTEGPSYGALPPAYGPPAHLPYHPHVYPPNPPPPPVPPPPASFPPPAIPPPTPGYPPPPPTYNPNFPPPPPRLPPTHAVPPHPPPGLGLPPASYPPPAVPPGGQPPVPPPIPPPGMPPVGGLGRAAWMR
T1 sequence (Q9NYV4 whole entry partner): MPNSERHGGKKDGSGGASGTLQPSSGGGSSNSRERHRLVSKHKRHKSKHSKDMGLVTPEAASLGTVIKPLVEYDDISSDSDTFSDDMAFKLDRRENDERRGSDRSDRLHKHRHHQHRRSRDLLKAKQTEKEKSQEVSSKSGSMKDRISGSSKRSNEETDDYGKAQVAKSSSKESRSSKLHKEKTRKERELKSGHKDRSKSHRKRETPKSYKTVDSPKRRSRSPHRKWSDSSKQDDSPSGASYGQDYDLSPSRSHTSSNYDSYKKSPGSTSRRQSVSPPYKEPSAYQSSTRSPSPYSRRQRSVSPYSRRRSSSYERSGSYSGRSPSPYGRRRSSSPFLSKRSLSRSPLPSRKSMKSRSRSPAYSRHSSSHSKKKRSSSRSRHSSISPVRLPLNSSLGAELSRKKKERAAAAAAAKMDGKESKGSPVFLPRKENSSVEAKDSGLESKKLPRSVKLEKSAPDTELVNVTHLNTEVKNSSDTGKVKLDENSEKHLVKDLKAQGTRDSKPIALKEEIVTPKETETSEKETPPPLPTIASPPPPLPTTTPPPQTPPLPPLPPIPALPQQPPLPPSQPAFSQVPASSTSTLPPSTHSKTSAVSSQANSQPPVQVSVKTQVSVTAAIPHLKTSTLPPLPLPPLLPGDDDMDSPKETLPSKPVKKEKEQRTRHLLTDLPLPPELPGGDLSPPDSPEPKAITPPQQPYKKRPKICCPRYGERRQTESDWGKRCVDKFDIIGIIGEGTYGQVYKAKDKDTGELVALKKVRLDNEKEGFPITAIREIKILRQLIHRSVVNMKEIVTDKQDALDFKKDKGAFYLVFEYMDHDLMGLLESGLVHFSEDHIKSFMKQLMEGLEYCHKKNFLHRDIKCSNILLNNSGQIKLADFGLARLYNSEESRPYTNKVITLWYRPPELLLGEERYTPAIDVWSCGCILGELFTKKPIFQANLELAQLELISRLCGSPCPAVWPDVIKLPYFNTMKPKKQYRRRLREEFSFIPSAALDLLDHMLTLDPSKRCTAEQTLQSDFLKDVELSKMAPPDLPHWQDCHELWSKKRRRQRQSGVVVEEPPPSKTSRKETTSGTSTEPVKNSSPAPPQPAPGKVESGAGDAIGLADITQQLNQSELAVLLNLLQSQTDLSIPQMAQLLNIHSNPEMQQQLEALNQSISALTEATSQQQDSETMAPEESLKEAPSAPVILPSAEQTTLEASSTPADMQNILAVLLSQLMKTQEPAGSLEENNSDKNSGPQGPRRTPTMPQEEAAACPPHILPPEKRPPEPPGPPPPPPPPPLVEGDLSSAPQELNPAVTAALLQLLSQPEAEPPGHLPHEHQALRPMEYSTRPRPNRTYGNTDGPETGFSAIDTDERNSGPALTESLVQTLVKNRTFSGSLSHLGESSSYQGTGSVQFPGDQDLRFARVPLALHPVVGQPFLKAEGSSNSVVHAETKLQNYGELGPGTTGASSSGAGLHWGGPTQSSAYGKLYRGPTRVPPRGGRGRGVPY

Row | Structure (SMILES) | pIC50 [1] | DC50 [2] [µM] | pIC50 [3]
1 | CC(C)c1cnn2c(NCc3nc4ccccc4[nH]3)nc(N(C)CC(C)(C)O)nc12 [Example 5, 1-{[4-{[(1H-benzimidazol-2-yl)methyl]amino}-8-(propan-2-yl)pyrazolo[1,5-a][1,3,5]triazin-2-yl](methyl)amino}-2-methylpropan-2-ol] | 7.63 | 0.00195 | 
2 | c1cncc(-c2cnn3c(NCc4nc5ccccc5[nH]4)nc(N4CCOCC4)nc23)c1 [Example 108, N-[(1H-benzimidazol-2-yl)methyl]-2-(morpholin-4-yl)-8-(pyridin-3-yl)pyrazolo[1,5-a][1,3,5]triazin-4-amine] | 7.06 | 0.00291 | 7.05
3 | Brc1cnn2c(NCc3nnc(-c4ccccc4)[nH]3)nc(N3C[C@@H]4C[C@H]3CO4)nc12 [Example 120, 8-bromo-2-[(1S,4S)-2-oxa-5-azabicyclo[2.2.1]heptan-5-yl]-N-[(5-phenyl-4H-1,2,4-triazol-3-yl)methyl]pyrazolo[1,5-a][1,3,5]triazin-4-amine] | 7.52 | 0.00219 | 7.60
4 | C[C@H]1CN(c2nc(NCc3nnc(-c4ccccc4)[nH]3)n3ncc(Br)c3n2)CCN1C.O=CO [Example 122, 8-bromo-2-[(3S)-3,4-dimethylpiperazin-1-yl]-N-[(5-phenyl-4H-1,2,4-triazol-3-yl)methyl]pyrazolo[1,5-a][1,3,5]triazin-4-amine formate] | 7.61 | 0.000735 | 7.73
5 | Fc1cccc2[nH]c(CNc3nc(N4CCOCC4)nc4c(Br)cnn34)nc12 [Example 97, 8-bromo-N-[(4-fluoro-1H-benzimidazol-2-yl)methyl]-2-(morpholin-4-yl)pyrazolo[1,5-a][1,3,5]triazin-4-amine] | 8.77 | 0.000467 | 8.29
6 | C[C@@H]1CN(c2nc(NCc3nc4c(F)cccc4[nH]3)n3ncc(Br)c3n2)C[C@H](C)O1 [Example 109, 8-bromo-2-[(2R,6S)-2,6-dimethylmorpholin-4-yl]-N-[(4-fluoro-1H-benzimidazol-2-yl)methyl]pyrazolo[1,5-a][1,3,5]triazin-4-amine] | 8.87 | 0.000115 | 8.31
7 | C[C@@H]1CN(c2nc(NCc3nnc(-c4ccccc4)[nH]3)n3ncc(Br)c3n2)C[C@H](C)N1C [Example 125, 8-bromo-N-[(5-phenyl-4H-1,2,4-triazol-3-yl)methyl]-2-[(3R,5S)-3,4,5-trimethylpiperazin-1-yl]pyrazolo[1,5-a][1,3,5]triazin-4-amine] | 7.21 | 0.0012 | 7.27
8 | Fc1ccc(-c2nnc(CNc3nc(N4CCOCC4)nc4c(Br)cnn34)[nH]2)cc1F [Example 99, 8-bromo-N-{[5-(3,4-difluorophenyl)-4H-1,2,4-triazol-3-yl]methyl}-2-(morpholin-4-yl)pyrazolo[1,5-a][1,3,5]triazin-4-amine] | 7.95 | 0.00305 | 7.26
9 | CCC1COCCN1c1nc(NCc2nc3ccccc3[nH]2)n2ncc(Br)c2n1 (stereo not shown) [Example 116, N-(1H-benzimidazol-2-ylmethyl)-8-bromo-2-(3-ethylmorpholin-4-yl)pyrazolo[1,5-a][1,3,5]triazin-4-amine] | 6.91 | 0.00492 | 7.33
10 | Fc1cc(-c2nnc(CNc3nc(N4CCOCC4)nc4c(Br)cnn34)[nH]2)cc(F)c1F [Example 100, 8-bromo-2-(morpholin-4-yl)-N-{[5-(3,4,5-trifluorophenyl)-4H-1,2,4-triazol-3-yl]methyl}pyrazolo[1,5-a][1,3,5]triazin-4-amine] | 7.21 | 0.0074 | 7.22
11 | Brc1cnn2c(NCc3nc4ccccc4[nH]3)nc(N3CCN4CCC[C@H]4C3)nc12 [Example 148, N-[(1H-benzimidazol-2-yl)methyl]-8-bromo-2-[(8aS)-hexahydropyrrolo[1,2-a]pyrazin-2 (1 H)-yl]pyrazolo[1,5-a][1,3,5]triazin-4-amine] | 7.06 | 0.00806 | 6.96
12 | CC1(C)CN(c2nc(NCc3nc4ccccc4[nH]3)n3ncc(C4CC4)c3n2)CCO1 [Example 123, N-[(1H-benzimidazol-2-yl)methyl]-8-cyclopropyl-2-(2,2-dimethylmorpholin-4-yl)pyrazolo[1,5-a][1,3,5]triazin-4-amine] | 7.15 | 0.00503 | 7.08
13 | CC(C)c1cnn2c(NCc3nc4ccccc4[nH]3)nc(N3CCCOCC3)nc12 [Example 8, N-[(1H-benzimidazol-2-yl)methyl]-2-(1,4-oxazepan-4-yl)-8-(propan-2-yl)pyrazolo[1,5-a][1,3,5]triazin-4-amine] | 7.03 | 0.0269 | 
14 | Cc1ccc(-c2nnc(CNc3nc(N4CCOCC4)nc4c(Br)cnn34)[nH]2)cc1F [Example 98, 8-bromo-N-{[5-(3-fluoro-4-methylphenyl)-4H-1,2,4-triazol-3-yl]methyl}-2-(morpholin-4-yl)pyrazolo[1,5-a][1,3,5]triazin-4-amine] | 7.10 | 0.0281 | 6.94
15 | c1ccc2[nH]c(CNc3nc(N4CCOCC4)nc4c(-c5ccncc5)cnn34)nc2c1 [Example 111, N-[(1H-benzimidazol-2-yl)methyl]-2-(morpholin-4-yl)-8-(pyridin-4-yl)pyrazolo[1,5-a][1,3,5]triazin-4-amine hydrogen chloride (1/1)] | 7.82 | 0.001 | 8.05
16 | Brc1cnn2c(NCc3nnc(-c4ccccc4)[nH]3)nc(N3CCNCC3)nc12.O=CO [Example 119, 8-bromo-N-[(5-phenyl-4H-1,2,4-triazol-3-yl)methyl]-2-piperazin-1-yl-pyrazolo[1,5-a][1,3,5]triazin-4-amine formate] | 7.67 | 0.003 | 8.11
17 | Fc1ccc2[nH]c(CNc3nc(N4CCOCC4)nc4c(Br)cnn34)nc2c1 [Example 101, 8-bromo-N-[(5-fluoro-1H-benzimidazol-2-yl)methyl]-2-(morpholin-4-yl)pyrazolo[1,5-a][1,3,5]triazin-4-amine] | 8.50 | 0.000892 | 8.39
18 | Brc1cnn2c(NCc3nnc(-c4ccccc4)[nH]3)nc(N3C[C@H]4C[C@@H]3CO4)nc12 [Example 118, 8-bromo-2-[(1R,4R)-2-oxa-5-azabicyclo[2.2.1]heptan-5-yl]-N-[(5-phenyl-4H-1,2,4-triazol-3-yl)methyl]pyrazolo[1,5-a][1,3,5]triazin-4-amine] | 7.58 | 0.00298 | 7.53
19 | Fc1cc(F)cc(-c2nnc(CNc3nc(N4CCOCC4)nc4c(Br)cnn34)[nH]2)c1 [Example 105, 8-bromo-N-{[5-(3,5-difluorophenyl)-4H-1,2,4-triazol-3-yl]methyl}-2-(morpholin-4-yl)pyrazolo[1,5-a][1,3,5]triazin-4-amine] | 8.07 | 0.000676 | 8.13

From patent US20230117034A1, “PYRAZOLOTRIAZINES” (Bayer Aktiengesellschaft, priority 2019, published 2023)
